Measurements taken from patent US12673057B2, “RIPK2 inhibition for the treatment of cancer” (CEDARS-SINAI MEDICAL CENTER, priority 2020, dated 2026).
“Also recorded” adds a separate entry of the source. Read-outs that look alike come from different tables or passages of the source. Residues, ends and D or L forms follow the SMILES beside them. *: point of attachment. Cbz = O=C(OCc1ccccc1)*

How the values were obtained:
[1] = system: MYC mRNA; assay: MYC mRNA abundance by quantitative RT-PCR; assay type: cell-based; settings: different doses and time
Source text: Total RNA was extracted from cells using the TRIZOL (Invitrogen). Messenger RNA was converted to the first-strand cDNA using iScript cDNA synthesis kit (Bio-Rad), followed by RT-PCR reaction using SYBR Green PCR Master Kit in QuantStudio 5 Systems (Applied Biosystems). Gene expression was normalized to GAPDH using the comparative CT method. To determine how RIPK2 upregulates the c-Myc protein, we first examined whether RIPK2 regulates the transcription of the MYC gene. […] Thus, the regulation of c-Myc protein abundance by RIPK2 is mainly via a post-transcriptional mechanism.

[2] = system: RIPK2; assay: Cell-based MKK7 phosphorylation immunoblot, surrogate for RIPK2 activity, RIPK2-KO HEK293T cells; parameters: species or system human; settings: 10 μM, 2 h, 10% fetal bovine serum
[3] = system: PC3 cells; assay: 3D spheroid invasion assay; settings: 10 μM, 3D culture
[4] = system: PC3, DU145, and 22Rv1 cells; assay: Soft agar assay (anchorage-independent colony formation); assay type: cell-based, human; settings: 10 μM
Method: Soft agar assay was performed essentially as described (Borowicz et al., 2014). Briefly, 1.5 mL of 0.5% Nobel agar solution was plated in each well of 6-well plates as the bottom layer. 1.5 mL of 6.67×10^3/mL (for PC3 and DU145) or 1.33×10^4/mL (for 22Rv1) cells in 0.3% noble agar solution were plated in 6-well plates as the top layer. […] The medium was replaced every 2-3 days. After 2-3 weeks, cell colonies were stained with 0.1% crystal violet solution for 20 minutes and washed with deionized water for five times. Cell colonies were quantified under an All-in-one microscope (Keyence) as described in the migration assay.

[5] = system: 22Rv1 cells
Method: Experimental metastasis model: For In vivo metastasis assays, pBMN (CMV-copGFP-Luc2-Puro) (Addgene) was stably transfected into control and RIPK2-KO 22Rv1 cells. Two weeks later, luciferase-expressing cells were sorted with a FACSAria III (BD Biosciences) using the same gate for GFP. […] To each male SCID/Beige mouse (7-week-old; Charles River), 100 μL of 1×10^7 cells/mL in DPBS was intracardially injected into the left cardiac ventricle. Each week, 150 μL of 30 mg/mL D-luciferin was intraperitoneally injected into each mouse, followed by measuring tumor metastasis with an IVIS Spectrum In Vivo Imaging System (PerkinElmer). Luciferase activity was quantified by the Living Image software (Caliper Life Sciences, v4.3.1).
Established metastasis model: For drug treatment, to each male SCID/Beige mouse (8-week-old; Charles River), 100 μL of 2.5×10^6 cells/mL in DPBS was intracardially injected. […] Two more mice were assigned to drug treatment groups in preparation for possible drug toxicity deaths, compared with the control group. Mice were daily administered by oral gavage (po qd) with a drug or vehicle control for 28 days. GSK583 was administered at 10 mg/kg po qd. […] Metastases were visualized by bioluminescence imaging every week as described above. At the end of the experiments, mice were sacrificed by standard necropsy, and tumors were harvested and subjected to histopathology analyses.
In the clinical scenario, patients with nmCRPC have no detectable metastases by conventional radiographic imaging. […] To investigate whether pharmacological inhibition of RIPK2 can suppress PC metastasis in a setting that mimics the clinical scenario, we injected the aforementioned luciferase-tagged control 22Rv1 cells intracardially into male SCID/Beige mice, and waited for 9 days to allow for the formation of early metastatic lesions, prior to drug treatment (FIG. 22G). To determine whether GSK583 impairs metastatic outgrowth, we randomized the mice into two groups (FIG. 31A), followed by treatment with vehicle control or GSK583 (10 mg/kg) administered by oral gavage every day (po qd).

[6] = system: RIPK2/MKK7(/JNK)/c-Myc signaling; assay: Immunoblot of endogenous p-JNK, p-c-Myc-S62 and c-Myc in parental PC cells; assay type: cell-based, human; settings: 10 μM GSK583 or 5 μM Ponatinib, 2 h
[7] = system: PC3, DU145, and 22Rv1 cells; assay: Clonogenic assay (anchorage-dependent colony formation); assay type: cell-based, human
Method: Two milliliters of PC3 (250/mL), DU145 (250/mL), or 22Rv1 (1,000/mL) cells were seeded in 6-well plates and cultured in 10% FBS-containing media, which were replaced every 2-3 days. After 10-14 days, cells were fixed in 4% paraformaldehyde for 15 min and rinsed with DPBS for three times. Cells were stained with 120 μg/mL crystal violet solution. Cell colonies were quantified under an All-in-one microscope (Keyence) as described in the migration assay.

[8] = mouse, in vivo, po, 30 mg/kg
[9] = system: c-Myc-Ser62 phosphorylation; assay: RIPK2-induced c-Myc-Ser62 phosphorylation immunoblot in RIPK2/MKK7-DKO HEK293T cells; assay type: cell-based, human
Method: (A) Representative immunoblots of the indicated proteins in total lysates of HEK293T cells with RIPK2- and MKK7-double knockout, which were transiently co-transfected with 0.5 μg MYC, 0.5 μg RIPK2m4, and 0.1 μg MAP2K7 or vector plasmids and then treated with vehicle control, MKK7-COV-3 (25 μM), or JNK-IN-8 (1 μM) in 10% FBS-containing medium for 2 h. (B) Representative images (upper) and quantification (lower) of PLA detecting the association of endogenous MKK7 and c-Myc in HEK293T cells (n=4 per group). (C) Representative images of immunofluorescence colocalization of MKK7 and c-Myc in RIPK2/MKK7-DKO HEK293T cells, which were transiently co-transfected with RIPK2m4, MKK7-His, and MYC plasmids. (D) Representative immunoblots of the indicated proteins after in vitro kinase reactions. (E) Representative immunoblots of the indicated proteins in total lysates of RIPK2/MKK7-DKO HEK293T cells, which were transiently transfected with the indicated forms of MKK7 plasmids or vector control. (F) Representative immunoblots of the indicated proteins in total lysates, cytoplasmic fraction, and nuclear fraction of RIPK2/MKK7-DKO HEK293T cells, which were transiently co-transfected with RIPK2m4, MYC, and MKK7 or vector control. (G) Representative images (upper) and quantification (lower) of PLA detecting the MKK7-c-Myc complex in RIPK2-KO HEK293T cells, which were transiently transfected with MYC and RIPK2m4 or vector control (n=5 per group). […] Data are Mean±SEM.
MKK7-COV-3, 25 μM; JNK-IN-8, 1 μM; 2-h treatment).

[10] = system: JNK; assay: RIPK2-induced c-Jun phosphorylation (surrogate for JNK activity) in RIPK2/MKK7-DKO HEK293T cells; assay type: cell-based, human; settings: 1 μM, 2-h treatment
Method: (A) Representative immunoblots of the indicated proteins in total lysates of HEK293T cells with RIPK2- and MKK7-double knockout, which were transiently co-transfected with 0.5 μg MYC, 0.5 μg RIPK2m4, and 0.1 μg MAP2K7 or vector plasmids and then treated with vehicle control, MKK7-COV-3 (25 μM), or JNK-IN-8 (1 μM) in 10% FBS-containing medium for 2 h. (B) Representative images (upper) and quantification (lower) of PLA detecting the association of endogenous MKK7 and c-Myc in HEK293T cells (n=4 per group). (C) Representative images of immunofluorescence colocalization of MKK7 and c-Myc in RIPK2/MKK7-DKO HEK293T cells, which were transiently co-transfected with RIPK2m4, MKK7-His, and MYC plasmids. (D) Representative immunoblots of the indicated proteins after in vitro kinase reactions. (E) Representative immunoblots of the indicated proteins in total lysates of RIPK2/MKK7-DKO HEK293T cells, which were transiently transfected with the indicated forms of MKK7 plasmids or vector control. […] (G) Representative images (upper) and quantification (lower) of PLA detecting the MKK7-c-Myc complex in RIPK2-KO HEK293T cells, which were transiently transfected with MYC and RIPK2m4 or vector control (n=5 per group). […]

[11] = system: c-Myc protein; assay: c-Myc protein degradation under cycloheximide treatment in PC3 cells; assay type: cell-based, human; settings: in the presence of CHX treatment
Source text: In human cells, the c-Myc protein can be rapidly stabilized through Ser62 phosphorylation, which prevents the targeted degradation of c-Myc by the ubiquitin-proteasome system (Farrell and Sears, 2014). Therefore, we investigated whether RIPK2 phosphorylates and stabilizes the c-Myc protein. Ectopic overexpression of RIPK2 increased the abundance of phospho-c-Myc-Ser62 (p-c-Myc-Ser62) and total c-Myc in a dose-dependent fashion (FIG. 18L). […] Of note, RIPK2 is more frequently amplified or gained in mCRPC or overexpressed in primary PC than all known direct c-Myc-Ser62 kinases (FIG. 29). This raises a possibility that RIPK2 can more efficiently stabilize and activate c-Myc, and thus its overexpression is more favored by PC cells than the known direct c-Myc-Ser62 kinases. Collectively, RIPK2 stabilizes the c-Myc protein by phosphorylating its Ser62 residue and preventing it from proteasomal degradation, and RIPK2 is potentially a major stabilizer of the c-Myc protein in PC cells.

[12] = system: PC3 and 22Rv1 cells; assay: PC cell viability; settings: 1 μM, 10% FBS-containing medium
[13] = cited from earlier work

CC(C)(C)S(=O)(=O)c1ccc2nccc(Nc3n[nH]c4ccc(F)cc34)c2c1 [GSK583]
regulation of MYC mRNA abundance [1]: ~10%
MKK7 phosphorylation levels (a surrogate for RIPK2 activity) [2]: substantially decreased
spheroid invasion of PC3 cells [3]: significantly decreased; also recorded: significantly inhibited; also recorded: suppresses
anchorage-independent colony formation [4]: suppresses
PC liver metastasis in vivo ([5]; 10 mg/kg po qd): Inhibits
prostate cancer (22Rv1) metastasis in mice ([5]; 10 mg/kg po qd): significantly decreased; also recorded: significantly suppressed; also recorded: significantly reduces; also recorded: Inhibits
decrease of BLI intensities in the ventral-side mid-body (liver metastasis) ([5]; 10 mg/kg po qd, week 4): 67%
reduction of metastatic progression (total BLI intensities) ([5]; 10 mg/kg po qd, week 4): 50%
RIPK2/MKK7(/JNK)/c-Myc signaling [6]: can inhibit
anchorage-dependent colony formation ([7]; 10 μM, PC3, DU145, and 22Rv1): suppresses
inhibition at 10 µM ([7]; Homo sapiens, read-out: inhibition of colony formation): ≥ 40%
inhibition of colony formation ([7]; low doses (≤1 μM), PC3, DU145, and 22Rv1): not at low doses
toxicity to mice [8]: toxic to mice

Cc1cc(NC(=O)c2cccc(NC(=O)/C=C/CN(C)C)c2)ccc1Nc1nccc(-c2cccnc2)n1 [JNK-IN-8]
reduction of RIPK2-induced c-Myc-Ser62 phosphorylation ([9]; 1 μM, 2-h treatment): 16%
inhibition of RIPK2-induced c-Myc-Ser62 phosphorylation at higher concentrations ([9]; up to 25 μM): could not enhance its inhibition
RIPK2-induced c-Jun phosphorylation, a surrogate for JNK activity [10]: completed abolished

CC(C)C[C@@H](C=O)NC(=O)[C@H](CC(C)C)NC(=O)[C@H](CC(C)C)NC(=O)OCc1ccccc1 [MG132] (Cbz-Leu-Leu-Leu-aldehyde)
degradation of the c-Myc protein [11]: degradation can be blocked

C=CC(=O)Nc1cccc(-c2n[nH]c3cc(C)ccc23)c1 [MKK7-COV-3]
decrease of RIPK2-induced c-Myc-Ser62 phosphorylation ([9]; 25 μM, 2-h treatment): 45%

Cc1ccc(C(=O)Nc2ccc(CN3CCN(C)CC3)c(C(F)(F)F)c2)cc1C#Cc1cnc2cccnn12 [Ponatinib]
effect on PC cell viability [12]: marginal effects
reduction of total BLI intensities ([5]; high-dose 30 mg/kg po qd for 10 days then 15 mg/kg, week 4): 92%
reduction of total BLI intensities ([5]; low-dose 6 mg/kg po qd, week 4): 74%
IC50 ([7]; Homo sapiens, read-out: IC50 of colony formation of PC cells): < 1 µM
venous thromboembolic events ([13]; % of patients): 6%
arterial occlusive adverse events: cardiac vascular events ([13]; patients): 21%
arterial occlusive adverse events: cerebrovascular ([13]; patients): 9%
arterial occlusive adverse events: peripheral vascular ([13]; patients): 12%
common adverse event: abdominal pain ([13]; patients): 48%
common adverse event: arterial ischemia ([13]; patients): 42%
common adverse event: arthralgia ([13]; patients): 32%
common adverse event: back pain ([13]; patients): 21%
common adverse event: constipation ([13]; patients): 41%
common adverse event: diarrhea ([13]; patients): 20%
common adverse event: dry skin ([13]; patients): 42%
common adverse event: fatigue ([13]; patients): 47%
common adverse event: headache ([13]; patients): 43%
common adverse event: hypertension ([13]; patients): 69%
common adverse event: myalgia ([13]; patients): 24%
common adverse event: nausea ([13]; patients): 28%
common adverse event: pain in extremity ([13]; patients): 23%
common adverse event: peripheral neuropathy ([13]; patients): 24%
common adverse event: pyrexia ([13]; patients): 26%
common adverse event: rash ([13]; patients): 63%
